Patent US11339207B2, “Methods and compounds for the treatment or prevention of severe influenza” (priority 2016, dated 2022)
Read-outs that look alike come from different tables or passages of the source.

Legend:
[1] = system: PBMCs plus granulocytes stimulated with A549 viral soup; assay type: cell-based, human; conditions: immune cells, pre-incubation, FIG. 8
[2] = system: p38MAPK and HSP27 phosphorylation in A549 cells; test: Western blotting of p38MAPK and HSP27 phosphorylation in A549 cells after A549 viral soup; assay type: cell-based, human; conditions: FIG. 6
[3] = system: HSP27 phosphorylation in HUVEC cells; test: Western blotting of HSP27 phosphorylation in HUVEC cells after HBEC viral soup; assay type: cell-based, human; conditions: pre-incubation
[4] = system: HSP27 phosphorylation in Peripheral Blood Mononuclear Cells (PBMCs); test: Western blotting of HSP27 phosphorylation in immune cells (PBMCs) after A549 viral soup; assay type: cell-based, human; conditions: pre-incubation, FIG. 8
influenza virus = conditions: 14% among controls, cited from earlier work
[5] = system: HUVECs stimulated with HBEC viral soup; assay type: cell-based, human; conditions: for iMax IP10: maximal inhibition, HUVEC, HBEC viral soup, secreted IP10; for levels of IP10 at higher drug concentrations: endothelial cells (HUVECs) stimulated with 70% HBEC viral soup, FIG. 10

Cc1cc(F)ccc1-c1nc(NC(CO)CO)nc2c1ccc(=O)n2-c1c(F)cccc1F [Dilmapimod, 8-(2,6-difluorophenyl)-2-(1,3-dihydroxypropan-2-ylamino)-4-(4-fluoro-2-methylphenyl)pyrido[2,3-d]pyrimidin-7-one]
A549 viral soup induced release of CXCL8 [1]: significantly attenuate | A549 viral soup induced release of IL-1-β [1]: significantly attenuate | A549 viral soup induced release of IL-6 [1]: significantly attenuate | A549 viral soup induced release of TNFα [1]: significantly attenuate | induction of HSP27 phosphorylation by A549 viral soup [2]: dose dependently inhibit | induction of p38MAPK phosphorylation by A549 viral soup [2]: dose dependently inhibit | induction of HSP27 phosphorylation by HBEC viral soup [3]: dose dependently inhibit | induction of HSP27 phosphorylation by A549 viral soup [4]: dose dependently inhibit

CC[C@H]1OC(=O)[C@H](C)[C@@H](O[C@H]2C[C@@](C)(OC)[C@@H](O)[C@H](C)O2)[C@H](C)[C@@H](O[C@@H]2O[C@H](C)C[C@H](N(C)C)[C@H]2O)[C@](C)(O)C[C@@H](C)C(=O)[C@H](C)[C@@H](O)[C@]1(C)O [EM, erythromycin]
survival rate of the virus-infected mice at Day 20 of infection (influenza virus; 1.0 mg/kg/d): 42% | survival rate of the virus-infected mice at Day 20 of infection (influenza virus; 3.3 mg/kg/d): 57%

CNC(=O)c1ccc(C)c(-n2c(C)cc(OCc3ccc(F)cc3F)c(Br)c2=O)c1 [PH797804, 3-[3-bromo-4-[(2,4-difluorophenyl)methoxy]-6-methyl-2-oxopyridin-1-yl]-N,4-dimethylbenzamide]
A549 viral soup induced release of CXCL8 [1]: significantly attenuate | A549 viral soup induced release of IL-1-β [1]: significantly attenuate | A549 viral soup induced release of IL-6 [1]: significantly attenuate | A549 viral soup induced release of TNFα [1]: significantly attenuate | iMax IP10 [5]: 88% | induction of HSP27 phosphorylation by A549 viral soup [2]: dose dependently inhibit | induction of p38MAPK phosphorylation by A549 viral soup [2]: dose dependently inhibit | induction of HSP27 phosphorylation by HBEC viral soup [3]: dose dependently inhibit | induction of HSP27 phosphorylation by A549 viral soup [4]: dose dependently inhibit

CC[C@H](C)C(=O)O[C@H]1C[C@H](O)C=C2C=C[C@H](C)[C@H](CC[C@@H](O)C[C@@H](O)CC(=O)O)[C@H]21 [Pravastatin]
iMax IP10 [5]: 35%

Nc1ccc2ncnc(NCCc3ccc(Oc4ccccc4)cc3)c2c1 [QNZ (EVP4593)]
iMax IP10 [5]: 72%

COc1cc(F)c(F)c(Nc2ccc(I)cc2F)c1NS(=O)(=O)C1(C[C@H](O)CO)CC1 [Refametinib]
levels of IP10 at higher drug concentrations [5]: appeared to increase levels of IP10

Selumetinib
levels of IP10 at higher drug concentrations [5]: appeared to increase levels of IP10
